This passage reports inhibition results from paper PMC5540273, “Progress towards a public chemogenomic set for protein kinases and a call for contributions” (PLoS ONE, 2017).

What all share (assay): KINOMEscan competition binding
One test addresses T1, DCAMKL3 (Homo sapiens, UniProt Q9C098).
T1 sequence (Q9C098 1-648): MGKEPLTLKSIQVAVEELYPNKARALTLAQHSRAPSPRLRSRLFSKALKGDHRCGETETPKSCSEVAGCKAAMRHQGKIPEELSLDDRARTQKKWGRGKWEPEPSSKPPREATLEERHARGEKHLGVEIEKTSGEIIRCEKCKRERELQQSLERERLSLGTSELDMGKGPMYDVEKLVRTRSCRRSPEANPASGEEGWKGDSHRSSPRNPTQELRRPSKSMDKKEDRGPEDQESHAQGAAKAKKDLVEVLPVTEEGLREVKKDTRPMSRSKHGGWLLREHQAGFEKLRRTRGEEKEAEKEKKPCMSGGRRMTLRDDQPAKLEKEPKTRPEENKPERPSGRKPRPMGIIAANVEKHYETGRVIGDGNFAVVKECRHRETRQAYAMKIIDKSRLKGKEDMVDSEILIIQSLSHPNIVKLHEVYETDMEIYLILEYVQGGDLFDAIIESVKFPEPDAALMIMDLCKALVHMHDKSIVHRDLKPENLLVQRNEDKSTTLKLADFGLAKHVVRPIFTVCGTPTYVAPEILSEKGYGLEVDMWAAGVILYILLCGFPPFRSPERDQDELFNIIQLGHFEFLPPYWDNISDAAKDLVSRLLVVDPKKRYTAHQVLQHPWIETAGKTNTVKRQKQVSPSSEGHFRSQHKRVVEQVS
To be noted: read-out: %Inh DCAMKL3.

A further test deals with T2, LATS2 (Homo sapiens, UniProt Q9NRM7).
T2 sequence (Q9NRM7 1-1088): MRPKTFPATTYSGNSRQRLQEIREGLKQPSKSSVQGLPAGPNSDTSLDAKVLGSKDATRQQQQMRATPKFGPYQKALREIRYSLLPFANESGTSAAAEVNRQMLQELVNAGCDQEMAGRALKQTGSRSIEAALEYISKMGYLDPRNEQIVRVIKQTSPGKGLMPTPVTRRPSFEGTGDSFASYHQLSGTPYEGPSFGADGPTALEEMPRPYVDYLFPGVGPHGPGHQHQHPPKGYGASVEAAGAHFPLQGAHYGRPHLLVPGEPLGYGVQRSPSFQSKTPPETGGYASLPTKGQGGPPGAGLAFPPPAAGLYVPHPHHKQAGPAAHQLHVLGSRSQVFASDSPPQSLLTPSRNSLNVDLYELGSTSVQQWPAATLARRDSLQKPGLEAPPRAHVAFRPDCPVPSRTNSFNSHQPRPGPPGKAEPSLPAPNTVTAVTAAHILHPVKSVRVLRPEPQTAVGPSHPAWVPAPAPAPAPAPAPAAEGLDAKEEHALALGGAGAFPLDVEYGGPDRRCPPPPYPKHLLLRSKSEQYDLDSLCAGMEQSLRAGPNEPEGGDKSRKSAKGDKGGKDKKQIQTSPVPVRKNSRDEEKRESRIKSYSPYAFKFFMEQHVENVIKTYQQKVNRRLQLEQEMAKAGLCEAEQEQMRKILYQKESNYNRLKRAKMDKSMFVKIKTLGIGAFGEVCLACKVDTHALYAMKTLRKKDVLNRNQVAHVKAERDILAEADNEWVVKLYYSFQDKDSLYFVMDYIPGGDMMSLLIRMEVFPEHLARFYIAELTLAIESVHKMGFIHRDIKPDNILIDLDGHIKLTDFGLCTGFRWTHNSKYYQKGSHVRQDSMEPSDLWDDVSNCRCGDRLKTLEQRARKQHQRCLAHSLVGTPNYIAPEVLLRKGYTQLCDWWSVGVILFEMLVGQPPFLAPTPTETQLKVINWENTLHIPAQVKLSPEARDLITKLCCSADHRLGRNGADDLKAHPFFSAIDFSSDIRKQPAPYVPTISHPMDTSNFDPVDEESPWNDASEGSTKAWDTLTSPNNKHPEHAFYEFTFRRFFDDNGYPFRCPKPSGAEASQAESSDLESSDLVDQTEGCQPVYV
To be noted: read-out: %Inh LATS2.

For another test, the target named is CDK5 (Homo sapiens, UniProt Q00535). To be noted: read-out: %Inh CDK5.
The next test concerns the target T3, IKK-beta (Homo sapiens, UniProt O14920).
T3 sequence (O14920 1-756): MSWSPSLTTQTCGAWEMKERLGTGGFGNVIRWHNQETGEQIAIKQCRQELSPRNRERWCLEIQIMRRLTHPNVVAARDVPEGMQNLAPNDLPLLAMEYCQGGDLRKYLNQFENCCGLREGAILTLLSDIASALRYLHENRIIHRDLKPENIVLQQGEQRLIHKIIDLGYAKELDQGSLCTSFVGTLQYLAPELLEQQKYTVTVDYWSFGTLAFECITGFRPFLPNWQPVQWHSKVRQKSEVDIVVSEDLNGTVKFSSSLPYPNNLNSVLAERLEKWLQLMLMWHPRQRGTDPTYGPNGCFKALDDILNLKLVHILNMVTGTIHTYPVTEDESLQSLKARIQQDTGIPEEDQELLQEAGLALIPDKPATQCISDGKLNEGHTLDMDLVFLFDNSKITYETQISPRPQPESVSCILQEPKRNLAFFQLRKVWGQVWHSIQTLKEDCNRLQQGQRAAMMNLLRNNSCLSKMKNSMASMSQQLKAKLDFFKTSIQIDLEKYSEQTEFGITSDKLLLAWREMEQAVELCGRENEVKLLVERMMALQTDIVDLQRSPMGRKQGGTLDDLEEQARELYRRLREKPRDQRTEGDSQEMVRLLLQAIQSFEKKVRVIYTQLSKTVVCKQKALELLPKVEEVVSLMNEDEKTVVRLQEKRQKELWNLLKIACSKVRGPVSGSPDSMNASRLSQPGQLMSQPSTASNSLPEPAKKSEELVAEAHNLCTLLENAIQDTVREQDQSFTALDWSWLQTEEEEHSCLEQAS
To be noted: read-out: %Inh IKK-beta.

The next test deals with FGFR1 (Homo sapiens, UniProt P11362). To be noted: read-out: %Inh FGFR1.
Sequence of FGFR1 (P11362 22-822): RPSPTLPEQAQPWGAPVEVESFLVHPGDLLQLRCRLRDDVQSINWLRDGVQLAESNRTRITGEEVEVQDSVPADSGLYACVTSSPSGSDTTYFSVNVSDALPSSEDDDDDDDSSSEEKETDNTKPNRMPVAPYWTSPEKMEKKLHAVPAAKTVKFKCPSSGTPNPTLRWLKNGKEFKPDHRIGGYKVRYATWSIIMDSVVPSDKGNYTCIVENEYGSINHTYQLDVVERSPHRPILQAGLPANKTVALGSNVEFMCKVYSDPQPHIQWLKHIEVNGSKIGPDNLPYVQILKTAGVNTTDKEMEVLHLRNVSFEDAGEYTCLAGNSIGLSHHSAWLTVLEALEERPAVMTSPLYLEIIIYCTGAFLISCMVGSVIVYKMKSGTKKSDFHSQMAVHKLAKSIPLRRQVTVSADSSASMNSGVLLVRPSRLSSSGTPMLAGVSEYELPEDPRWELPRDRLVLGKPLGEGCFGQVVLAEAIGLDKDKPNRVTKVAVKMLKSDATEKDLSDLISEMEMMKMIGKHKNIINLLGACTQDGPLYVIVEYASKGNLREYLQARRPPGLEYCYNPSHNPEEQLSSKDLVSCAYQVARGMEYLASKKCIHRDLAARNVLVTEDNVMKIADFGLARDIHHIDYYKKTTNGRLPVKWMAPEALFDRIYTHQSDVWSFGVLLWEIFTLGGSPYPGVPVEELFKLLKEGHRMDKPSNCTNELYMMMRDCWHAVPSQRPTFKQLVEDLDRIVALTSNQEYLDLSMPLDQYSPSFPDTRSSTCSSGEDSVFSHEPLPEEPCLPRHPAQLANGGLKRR

Sequence of CDK5 (Q00535 whole entry): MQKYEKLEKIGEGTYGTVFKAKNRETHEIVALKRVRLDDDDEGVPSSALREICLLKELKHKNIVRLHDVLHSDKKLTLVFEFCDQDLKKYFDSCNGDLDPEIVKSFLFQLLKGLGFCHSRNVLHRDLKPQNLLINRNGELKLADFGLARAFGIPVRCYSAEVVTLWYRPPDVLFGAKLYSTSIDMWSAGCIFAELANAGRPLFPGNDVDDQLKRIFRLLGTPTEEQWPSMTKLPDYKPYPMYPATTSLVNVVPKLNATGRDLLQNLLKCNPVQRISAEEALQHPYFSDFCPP

As to `Cn1cc(-c2cnc(N)c3c(-c4ccc5c(c4)CCN5C(=O)Cc4ccccc4)csc23)cn1` [UNC10225012A], the inhibition at 1 µM came to 5% at DCAMKL3; 23% on LATS2; 2% at CDK5; 0% on IKK-beta; 28% at FGFR1.
For `CS(=O)(=O)Cc1ccc(Nc2nccc(-c3c(-c4cccc(NC(=O)C5CCCCC5)c4)nn4ncccc34)n2)cc1` [UNC10225159A] the same measures were 0%, 48%, 4%, 12% and 0%.
With `Cc1ccc(NC(=O)Nc2cccc(C(F)(F)F)c2)cc1` [UNC10225187A], the inhibition at 1 µM at DCAMKL3 came to 13%; on LATS2, 20%; at CDK5, 0%; at IKK-beta, 0%; at FGFR1, 1%.
Consider `COc1cccc(OC)c1C(=O)Nc1cccc(-c2nn3ccccc3c2-c2ccnc(Nc3cccc(F)c3)n2)c1` [UNC10225310A], for which the inhibition at 1 µM on DCAMKL3 was determined as 16%; on LATS2, 10%; on CDK5, 21%; on IKK-beta, 0%; on FGFR1, 11%.
In the case of `O=c1cc(N2CCOCC2)nc2n(Cc3cccc(Cl)c3Cl)c(C3CC3)nn12` [UNC10225469A], the inhibition at 1 µM turned out to be 17% at DCAMKL3; 27% at LATS2; 7% on CDK5; 0% at IKK-beta; 0% on FGFR1.
